Values quoted from earlier work in US8545863B2, “Insecticides for agricultural and horticultural crops” (Globachem, priority 2009, dated 2013).

System: apple scab (V. inequalis)

Row | Structure (SMILES) | decreasing fruit and leaf scab (apple scab) | concentration preventing germination of spores and killing the spore sacks (asci) (apple scab (V. inequalis))
1 | O=C([O-])O.[K+] [Potassium bicarbonate, potassium bicarbonate] | effective | –
2 | [Ca+2].[OH-].[OH-] [calcium hydroxide] | – | 4.3 g/L
